Data from US11986471B2, “Compounds and methods of use” (Tango Therapeutics, Inc., priority 2018, dated 2024).
pIC50: −log10 of the molar value.

Legend:
Format in all cases: biochemical
PRMT5 [1] = target: T1, PRMT5 (Homo sapiens, UniProt O14744); assay: PRMT5 IC50 assay with no cofactor
T1 construct: purchased Viva (custom protein)
Source text: (§1) Table 1a indicates IC50 values (μM) against PRMT5 for exemplary compounds in the presence of SAM as cofactor, with no cofactor and with MTA as cofactor, respectively (columns 3-5). […] The Ki values can be calculated from the IC50 values as described in the Examples section. As detailed in the Examples section, for the assay performed in the presence of SAM, IC50=Ki×1.5 (Ki=IC50/1.5). For the assay performed in the presence of MTA, IC50=Ki×13.5 (Ki=IC50/13.5). Column 6 indicates the ratio between the Ki of compounds in the presence of SAM and the Ki of compounds in the presence of MTA

PRMT5 [2] = target: T1, PRMT5; assay: PRMT5 IC50 assay in the presence of MTA as cofactor; details: for pIC50: PRMT5, MTA as cofactor
Source text: as §1

PRMT5 [3] = target: T1, PRMT5; assay: PRMT5 IC50 assay in the presence of SAM as cofactor
Source text: as §1

[4] = ratio between the Ki in the presence of SAM and the Ki in the presence of MTA
[5] = ratio between Ki in the presence of SAM and Ki in the presence of MTA

T1 sequence (O14744 whole entry): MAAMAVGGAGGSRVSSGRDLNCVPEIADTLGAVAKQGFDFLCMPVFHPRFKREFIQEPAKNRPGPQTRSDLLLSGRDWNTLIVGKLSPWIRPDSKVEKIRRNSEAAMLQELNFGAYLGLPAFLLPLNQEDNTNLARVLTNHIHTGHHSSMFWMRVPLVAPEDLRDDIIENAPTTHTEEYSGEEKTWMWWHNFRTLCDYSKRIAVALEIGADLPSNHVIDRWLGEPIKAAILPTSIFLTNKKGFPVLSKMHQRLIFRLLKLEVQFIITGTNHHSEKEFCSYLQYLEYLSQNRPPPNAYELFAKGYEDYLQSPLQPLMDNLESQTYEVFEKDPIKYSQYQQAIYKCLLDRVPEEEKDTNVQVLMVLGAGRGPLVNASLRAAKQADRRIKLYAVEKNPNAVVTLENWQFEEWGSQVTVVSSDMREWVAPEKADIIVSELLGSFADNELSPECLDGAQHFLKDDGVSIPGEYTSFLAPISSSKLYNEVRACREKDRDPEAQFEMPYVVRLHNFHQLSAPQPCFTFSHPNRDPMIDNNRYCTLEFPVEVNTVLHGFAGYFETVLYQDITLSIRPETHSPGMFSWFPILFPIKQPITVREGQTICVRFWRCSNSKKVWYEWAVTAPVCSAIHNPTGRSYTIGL
T1 sequence (Q9BQA1 whole entry partner): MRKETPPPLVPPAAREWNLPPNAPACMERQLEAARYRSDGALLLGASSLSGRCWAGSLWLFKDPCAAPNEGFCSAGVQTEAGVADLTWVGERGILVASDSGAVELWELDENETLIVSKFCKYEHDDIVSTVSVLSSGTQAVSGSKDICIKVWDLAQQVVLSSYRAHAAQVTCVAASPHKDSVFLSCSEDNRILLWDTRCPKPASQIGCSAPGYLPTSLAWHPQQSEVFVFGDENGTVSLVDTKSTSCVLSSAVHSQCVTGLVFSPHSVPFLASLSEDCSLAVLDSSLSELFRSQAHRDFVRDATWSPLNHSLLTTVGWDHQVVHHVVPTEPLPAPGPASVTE

`Cc1ncoc1COc1ccc2c(c1)[C@@H](O)CN(C[C@@H](O)CNC(=O)c1ccnc(NC3CCC3)c1)C2` (single isomer, unassigned) [Compound 505] was tested, and the pIC50 (PRMT5 [1]) was at most 5.30, the pIC50 (PRMT5 [2]) was 5.30 to 6.30 and the “SAM/MTA Ratio” value (PRMT5 [2]; [4]) was “A (a Ki ratio greater than or equal to 10 fold between the Ki in the presence of SAM and the Ki in the presence of MTA)”. For the same compound, the pIC50 (PRMT5 [3]) was 5.30 to 6.30.

For `COCCN(C)c1cc(NC2CCN(C(C)=O)CC2)cc(C(=O)NC[C@@H](O)CN2CCc3cc(OCc4ocnc4C)ccc3C2)c1` (single isomer, unassigned) [Compound 648], the pIC50 (PRMT5 [1]; read-out: No Co-factor IC50) was at most 5.30, the pIC50 (PRMT5 [2]) was 6.30 to 7.30 and the “SAM/MTA Ratio” value (PRMT5 [2]; [5]) was “A (a Ki ratio greater than or equal to 10 fold between the Ki in the presence of SAM and the Ki in the presence of MTA)”. It also gave a pIC50 (PRMT5 [3]) of 6.30 to 7.30.

For `COCCN(C)c1cc(NC2CCN(C(C)=O)CC2)cc(C(=O)NC[C@H](O)CN2CCc3cc(OCc4ocnc4C)ccc3C2)c1` (single isomer, unassigned) [Compound 649], the pIC50 (PRMT5 [1]; read-out: No Co-factor IC50) was at most 5.30, the pIC50 (PRMT5 [2]) was 5.30 to 6.30 and the “SAM/MTA Ratio” value (PRMT5 [2]; [5]) was “A (a Ki ratio greater than or equal to 10 fold between the Ki in the presence of SAM and the Ki in the presence of MTA)”. It also gave a pIC50 (PRMT5 [3]) of 5.30 to 6.30.

`Cc1c(OCc2ccnn2C)ccc2c1CCN(C[C@@H](O)CNC(=O)c1ccnc(NC3CCC3)c1)C2` [Compound 161, 2-(cyclobutylamino)-N-[(2S)-2-hydroxy-3-[5-methyl-6-[(2-methylpyrazol-3-yl)methoxy]-3,4-dihydro-1H-isoquinolin-2-yl]propyl]pyridine-4-carboxamide] was tested, and the pIC50 (PRMT5 [1]; read-out: No Co-factor IC50) was at most 5.30, the pIC50 (PRMT5 [2]) was 5.30 to 6.30 and the “SAM/MTA Ratio” value (PRMT5 [2]; [5]) was “A (a Ki ratio greater than or equal to 10 fold between the Ki in the presence of SAM and the Ki in the presence of MTA)”. For the same compound, the pIC50 (PRMT5 [3]) was 5.30 to 6.30.

`O=C1N[C@H]2[C@H](CS[C@H]2CCCCC(=O)N2CCC(Nc3cc(C(=O)NC[C@H](O)CN4CCc5cc(OCc6cnco6)ccc5C4)ncn3)CC2)N1` [Compound 265] was tested, and the pIC50 (PRMT5 [1]; read-out: No Co-factor IC50) was 5.30 to 6.30, the pIC50 (PRMT5 [2]) was over 7.30 and the “SAM/MTA Ratio” value (PRMT5 [2]; [5]) was “A (a Ki ratio greater than or equal to 10 fold between the Ki in the presence of SAM and the Ki in the presence of MTA)”. The pIC50 (PRMT5 [3]) was 6.30 to 7.30.

For `O=C(NC[C@H](O)CN1CCc2c(ccc(OCc3cnn[nH]3)c2Cl)C1)c1ccnc(NC2CCC2)c1` [Compound 269, N-[(2S)-3-[5-chloro-6-(1H-triazol-5-ylmethoxy)-3,4-dihydro-1H-isoquinolin-2-yl]-2-hydroxy-propyl]-2-(cyclobutylamino)pyridine-4-carboxamide], the pIC50 (PRMT5 [1]; read-out: No Co-factor IC50) was at most 5.30, the pIC50 (PRMT5 [2]) was 5.30 to 6.30 and the “SAM/MTA Ratio” value (PRMT5 [2]; [5]) was “A (a Ki ratio greater than or equal to 10 fold between the Ki in the presence of SAM and the Ki in the presence of MTA)”. For the same compound, the pIC50 (PRMT5 [3]) was 5.30 to 6.30.

`CC(=O)N1CCC(Nc2cc(C(=O)NC[C@H](O)CN3CCc4c(ccc(OCc5cnnn5C)c4C)C3)ncn2)CC1` [Compound 276, (S)-6-((1-acetylpiperidin-4-yl)amino)-N-(2-hydroxy-3-[5-methyl-6-((1-methyl-1H-1,2,3-triazol-5-yl)methoxy)-3N-dihydroisoquinolin-2(1H)-yl)propyl)pyrimidine-4-carboxamide] was tested, and the pIC50 (PRMT5 [1]; read-out: No Co-factor IC50) was at most 5.30, the pIC50 (PRMT5 [2]) was 5.30 to 6.30 and the “SAM/MTA Ratio” value (PRMT5 [2]; [5]) was “A (a Ki ratio greater than or equal to 10 fold between the Ki in the presence of SAM and the Ki in the presence of MTA)”. It also gave a pIC50 (PRMT5 [3]) of 5.30 to 6.30.

With `O[C@@H](CNc1nccc(-c2sccc2Br)n1)CN1CCc2cc(OCc3cnco3)ccc2C1` [Compound 331, (S)-1-((4-(3-bromothiophen-2-yl)pyrimidin-2-yl)amino)-3-(6-(oxazol-5-ylmethoxy)-3,4-dihydroisoquinolin-2(1H)-yl)propan-2-ol] the pIC50 (PRMT5 [1]; read-out: No Co-factor IC50) was 5.30 to 6.30, the pIC50 (PRMT5 [2]) was 5.30 to 6.30 and the “SAM/MTA Ratio” value (PRMT5 [2]; [5]) was “A (a Ki ratio greater than or equal to 10 fold between the Ki in the presence of SAM and the Ki in the presence of MTA)”. It also gave a pIC50 (PRMT5 [3]) of 5.30 to 6.30.

With `Cc1c(OCc2cnco2)cc(F)c2c1CCN(C[C@H](O)CNC(=O)c1ccnc(NC3CCC3)c1)C2` [Compound 332, 2-(cyclobutylamino)-N-[(2R)-3-[8-fluoro-5-methyl-6-(oxazol-5-ylmethoxy)-3,4-dihydro-1H-isoquinolin-2-yl]-2-hydroxy-propyl]pyridine-4-carboxamide] the pIC50 (PRMT5 [1]; read-out: No Co-factor IC50) was at most 5.30, the pIC50 (PRMT5 [2]) was 5.30 to 6.30 and the “SAM/MTA Ratio” value (PRMT5 [2]; [5]) was “A (a Ki ratio greater than or equal to 10 fold between the Ki in the presence of SAM and the Ki in the presence of MTA)”. The pIC50 (PRMT5 [3]) was 5.30 to 6.30.

With `CC1(CCC(=O)N2CCC(Nc3cc(C(=O)NC[C@H](O)CN4CCc5cc(OCc6cnco6)ccc5C4)ncn3)CC2)N=N1` [Compound 363, N-[(2S)-2-hydroxy-3-[6-(oxazol-5-ylmethoxy)-3N-dihydro-1H-isoquinolin-2-yl]propyl]-6-[[1-[3-(3-methyldiazirine-3-yl)propanoyl]-4-piperidyl]amino]pyrimidine-4-carboxamide] the pIC50 (PRMT5 [1]; read-out: No Co-factor IC50) was 5.30 to 6.30, the pIC50 (PRMT5 [2]) was 6.30 to 7.30 and the “SAM/MTA Ratio” value (PRMT5 [2]; [5]) was “A (a Ki ratio greater than or equal to 10 fold between the Ki in the presence of SAM and the Ki in the presence of MTA)”. For the same compound, the pIC50 (PRMT5 [3]) was 6.30 to 7.30.

With `O=C(NC[C@H](O)CN1CCc2c(ccc(OCc3cnco3)c2Br)C1)c1cc(NC2CCCCC2)ncn1` [Compound 377, (S)—N-(3-(5-bromo-6-(oxazol-5-ylmethoxy)-3A-dihydroisoquinolin-2(1H)-yl)-2-hydroxypropyl)-6-(cyclohexylamino)pyrimidine-4-carboxamide] the pIC50 (PRMT5 [1]; read-out: No Co-factor IC50) was at most 5.30, the pIC50 (PRMT5 [2]) was 5.30 to 6.30 and the “SAM/MTA Ratio” value (PRMT5 [2]; [5]) was “A (a Ki ratio greater than or equal to 10 fold between the Ki in the presence of SAM and the Ki in the presence of MTA)”. It also gave a pIC50 (PRMT5 [3]) of 5.30 to 6.30.

With `CCCN(C)c1cc(C(=O)NC[C@H](O)CN2CCc3c(ccc(OCc4cnco4)c3Cl)C2)cc(NC2CCC2)n1` [Compound 453, (S)—N-(3-(5-chloro-6-(oxazol-5-ylmethoxy)-3N-dihydroisoquinolin-2(1H)-yl)-2-hydroxypropyl)-2-(cyclobutylamino)-6-(methyl(propyl)amino)isonicotinamide] the pIC50 (PRMT5 [1]) was at most 5.30, the pIC50 (PRMT5 [2]) was 5.30 to 6.30 and the “SAM/MTA Ratio” value (PRMT5 [2]; [4]) was “A (a Ki ratio greater than or equal to 10 fold between the Ki in the presence of SAM and the Ki in the presence of MTA)”. The pIC50 (PRMT5 [3]) was 5.30 to 6.30.

`O=C(NC[C@H](O)CN1CCc2c(ccc(OCc3cnco3)c2Cl)C1)c1cc(NC2CCC2)ncn1` [Compound 508, (S)—N-(3-(5-chloro-6-(oxazol-5-ylmethoxy)-3,4-dihydroisoquinolin-2(1H)-yl)-2-hydroxypropyl)-6-(cyclobutylamino)pyrimidine-4-carboxamide] was tested, and the pIC50 (PRMT5 [1]) was at most 5.30, the pIC50 (PRMT5 [2]) was 6.30 to 7.30 and the “SAM/MTA Ratio” value (PRMT5 [2]; [4]) was “A (a Ki ratio greater than or equal to 10 fold between the Ki in the presence of SAM and the Ki in the presence of MTA)”. For the same compound, the pIC50 (PRMT5 [3]) was 5.30 to 6.30.

For `Cc1c(OCc2cnco2)ccc2c1CCN(C[C@@H](O)CNC(=O)c1cncc(NC3CCOC3)c1)C2` (some centres unmarked) [Compound 510], the pIC50 (PRMT5 [1]) was at most 5.30, the pIC50 (PRMT5 [2]) was 6.30 to 7.30 and the “SAM/MTA Ratio” value (PRMT5 [2]; [4]) was “A (a Ki ratio greater than or equal to 10 fold between the Ki in the presence of SAM and the Ki in the presence of MTA)”. The pIC50 (PRMT5 [3]) was 5.30 to 6.30.

In the case of `CC(=O)N1CC(Nc2cc(C(=O)NCC(O)CN3CCc4cc(OCc5ocnc5C)ccc4C3)nc(N3CCCCC3)c2)C1` (centres unmarked) [Compound 580], the pIC50 (PRMT5 [1]) was 5.30 to 6.30.

For `CC(=O)N1CCC(Nc2cc(C(=O)NCC(O)CN3CCc4nc(OCc5ocnc5C)ccc4C3)cc(N3CCCCC3)n2)CC1` (centres unmarked) [Compound 654], the pIC50 (PRMT5 [1]; read-out: No Co-factor IC50) was 5.30 to 6.30 and the pIC50 (PRMT5 [2]) was 6.30 to 7.30.
